Patent publication US11723890B2, “Methods of treatment using an mTORC1 modulator” (Navitor Pharmaceuticals, Inc., priority 2019, dated 2023)
Read-outs that look alike come from different tables or passages of the source.

What was measured:
[1] = Example 3: plasma pharmacokinetics of two sequential doses; type: in vivo, human; conditions: for Tmax / AUC / AUC(0-t) / Cmax / half-life: male, human, 2400 mg
Description: Up to approximately 24 healthy male volunteers were randomly assigned (1:1) to double-blind treatment with either compound A 2400 mg or placebo. Each subject received one dose of either 2400 mg compound A or placebo on Day 1 and a second dose of the same treatment on Day 3.
The initial dose of double-blind treatment was administered between 7:00 AM and 10:00 AM on Day 1. The second (Day 3) dose was given 48 hours ±30 minutes following the first (Day 1) dose. Predose assessments were performed up to 120 minutes prior to dosing on Day 1 and Day 3, except for the predose dECG, which was performed within 30 minutes prior to dosing on both Day 1 and Day 3, the predose qEEG and ERP, which was performed within 60 minutes prior to dosing on Day 1 and Day 3, and the predose PK blood draw, which was performed within 15 minutes prior to dosing on Day 3.
Pharmacodynamics were assessed via qEEG and event-related potential (ERP). Frequent PK sampling was included in the study to evaluate the PK of two doses of compound A given approximately 48 hours apart. A PK/PD model was developed that measures qEEG and ERP changes as a function of plasma concentration of compound A as well as determines whether there are any PK/PD differences between Dose 1 and Dose 2 effects.
Subjects were required to refrain from eating or drinking from 2 hours prior to dose administration until two hours after dose administration.

subjects with TRD = experiment: Example 1 Part B: safety and tolerability of a single dose in subjects with TRD; conditions: single oral 2400 mg
Description: In Part B of the study, approximately 32 subjects were randomly assigned to double-blind treatment in one cohort. […] The single-blind placebo lead-in treatment was intended to facilitate screening out placebo responders.
The study included standard safety and tolerability assessments—e.g., physical, neurological, and psychiatric examinations, vital signs, oral temperature, respiration rate, weight, 12-lead paper electrocardiograms (pECGs), dECGs, clinical laboratory tests, monitoring of adverse events (AEs) and concomitant medications, and, in Part A of the study, cardiovascular (CV) telemetry and safety EEGs.
Placebo was administered orally as a solution.

[2] = healthy males, 2400 mg oral, Day 1, N 11
[3] = healthy males, 2400 mg oral, second dose, Day 3, N 11

Question: Which results are given for `CC(C)(C[C@H](N)C(=O)O)C(F)F` [Compound A, (S)-2-amino-5,5-difluoro-4,4-dimethylpentanoic acid]?
Answer: accumulation between Day 1 and Day 3 ([1]; 2400 mg oral 48 hours apart): negligible accumulation; difference in geometric mean exposure (Cmax, AUC(0-24), AUC(0-48)) between Day 1 and Day 3 ([1]; 2400 mg oral on Days 1 and 3): ≤ 5%; time of peak concentration for the mean profile ([1]; 2400 mg oral, day 1, post-dose): 1 h; time of highest concentration for the mean profile ([1]; 2400 mg oral, day 3, post-dose): 0.5 h; mean plasma concentration versus time profiles on days 1 and 3 ([1]; FIG. 13): nearly superimposable; AUC(0-24), Max [1, 2]: 416,000 h*ng/mL; AUC(0-24), Min [1, 2]: 298,000 h*ng/mL; AUC(0-48), Max [1, 2]: 525,000 h*ng/mL; AUC(0-48), Min [1, 2]: 357,000 h*ng/mL; AUClast, Max [1, 2]: 481,000 h*ng/mL; AUClast, Min [1, 2]: 298,000 h*ng/mL; Cmax, Max [1, 2]: 57,700 ng/mL; Cmax, Min [1, 2]: 23,300 ng/mL; T1/2, Max [1, 2]: 15.2 h; T1/2, Min [1, 2]: 9.20 h; AUC(0-24), Max [1, 3]: 449,000 h*ng/mL; AUC(0-24), Min [1, 3]: 294,000 h*ng/mL; AUC(0-48), Max [1, 3]: 584,000 h*ng/mL; AUC(0-48), Min [1, 3]: 353,000 h*ng/mL; AUClast, Max [1, 3]: 632,000 h*ng/mL; AUClast, Min [1, 3]: 369,000 h*ng/mL; Cmax, Max [1, 3]: 52,300 ng/mL; Cmax, Min [1, 3]: 35,700 ng/mL; T1/2, Max [1, 3]: 21.1 h; T1/2, Min [1, 3]: 10.9 h; Tmax ([1]; oral, all subjects, both dosing days (Days 1 and 3), read-out: individual Tmax values): 0.5 to 1 h; AUC ([1]; po, healthy males, 2400 mg oral, Day 1, N 11, read-out: AUC(0-24), Geometric mean): 355 µg·h/mL; AUC ([1]; po, healthy males, 2400 mg oral, Day 1, N 11, read-out: AUC(0-24), Mean): 358 µg·h/mL; AUC ([1]; po, healthy males, 2400 mg oral, Day 1, N 11, read-out: AUC(0-24), Median): 366 µg·h/mL; AUC ([1]; po, healthy males, 2400 mg oral, Day 1, N 11, read-out: AUC(0-48), Geometric mean): 438 µg·h/mL; AUC ([1]; po, healthy males, 2400 mg oral, Day 1, N 11, read-out: AUC(0-48), Mean): 442 µg·h/mL; AUC ([1]; po, healthy males, 2400 mg oral, Day 1, N 11, read-out: AUC(0-48), Median): 453 µg·h/mL; AUC(0-t) ([1]; po, healthy males, 2400 mg oral, Day 1, N 11, read-out: AUClast, Geometric mean): 405 µg·h/mL; AUC(0-t) ([1]; po, healthy males, 2400 mg oral, Day 1, N 11, read-out: AUClast, Mean): 409 µg·h/mL; AUC(0-t) ([1]; po, healthy males, 2400 mg oral, Day 1, N 11, read-out: AUClast, Median): 422 µg·h/mL; Cmax ([1]; po, healthy males, 2400 mg oral, Day 1, N 11, read-out: Cmax, Geometric mean): 43900 ng/mL; Cmax ([1]; po, healthy males, 2400 mg oral, Day 1, N 11, read-out: Cmax, Mean): 45100 ng/mL; Cmax ([1]; po, healthy males, 2400 mg oral, Day 1, N 11, read-out: Cmax, Median): 47000 ng/mL; half-life ([1]; po, healthy males, 2400 mg oral, Day 1, N 11, read-out: T1/2, Geometric mean (converted)): 12.1 h; half-life ([1]; po, healthy males, 2400 mg oral, Day 1, N 11, read-out: T1/2, Mean (converted)): 12.2 h; half-life ([1]; po, healthy males, 2400 mg oral, Day 1, N 11, read-out: T1/2, Median (converted)): 12 h; Tmax ([1]; po, healthy males, 2400 mg oral, Day 1, N 11, read-out: Tmax, Median): 1 h; AUC ([1]; po, healthy males, 2400 mg oral, second dose, Day 3, N 11, read-out: AUC(0-24), Geometric mean): 350 µg·h/mL; AUC ([1]; po, healthy males, 2400 mg oral, second dose, Day 3, N 11, read-out: AUC(0-24), Mean): 353 µg·h/mL; AUC ([1]; po, healthy males, 2400 mg oral, second dose, Day 3, N 11, read-out: AUC(0-24), Median): 340 µg·h/mL; AUC ([1]; po, healthy males, 2400 mg oral, second dose, Day 3, N 11, read-out: AUC(0-48), Geometric mean): 430 µg·h/mL; AUC ([1]; po, healthy males, 2400 mg oral, second dose, Day 3, N 11, read-out: AUC(0-48), Mean): 436 µg·h/mL; AUC ([1]; po, healthy males, 2400 mg oral, second dose, Day 3, N 11, read-out: AUC(0-48), Median): 428 µg·h/mL; AUC(0-t) ([1]; po, healthy males, 2400 mg oral, second dose, Day 3, N 11, read-out: AUClast, Geometric mean): 455 µg·h/mL; AUC(0-t) ([1]; po, healthy males, 2400 mg oral, second dose, Day 3, N 11, read-out: AUClast, Mean): 462 µg·h/mL; AUC(0-t) ([1]; po, healthy males, 2400 mg oral, second dose, Day 3, N 11, read-out: AUClast, Median): 460 µg·h/mL; Cmax ([1]; po, healthy males, 2400 mg oral, second dose, Day 3, N 11, read-out: Cmax, Geometric mean): 45300 ng/mL; Cmax ([1]; po, healthy males, 2400 mg oral, second dose, Day 3, N 11, read-out: Cmax, Mean): 45600 ng/mL; Cmax ([1]; po, healthy males, 2400 mg oral, second dose, Day 3, N 11, read-out: Cmax, Median): 47400 ng/mL; half-life ([1]; po, healthy males, 2400 mg oral, second dose, Day 3, N 11, read-out: T1/2, Geometric mean (converted)): 15.3 h; half-life ([1]; po, healthy males, 2400 mg oral, second dose, Day 3, N 11, read-out: T1/2, Mean (converted)): 15.6 h; half-life ([1]; po, healthy males, 2400 mg oral, second dose, Day 3, N 11, read-out: T1/2, Median (converted)): 15.6 h; Tmax ([1]; po, healthy males, 2400 mg oral, second dose, Day 3, N 11, read-out: Tmax, Median): 0.5 h; Vitals, labs, and ECG findings (subjects with TRD): unremarkable; safety and tolerability (subjects with TRD): well tolerated, with no serious adverse events, and no discontinuations due to adverse events; severity of adverse events (subjects with TRD): mild-moderate; Deaths (subjects with TRD; n = 16): 0; Discontinuations due to AE (subjects with TRD; n = 16): 0; Serious AEs (subjects with TRD; n = 16): 0; Subjects with at least 1 AE (subjects with TRD; n = 16): 11 (68.8); TEAE: Back pain (subjects with TRD; n = 16): 1; TEAE: Dizziness (subjects with TRD; n = 16): 2; TEAE: Dizziness postural (subjects with TRD; n = 16): 1; TEAE: Dry mouth (subjects with TRD; n = 16): 1; TEAE: Dyspepsia (subjects with TRD; n = 16): 1; TEAE: Feeling abnormal (subjects with TRD; n = 16): 1; TEAE: Flatulence (subjects with TRD; n = 16): 1; TEAE: Frequent bowel movements (subjects with TRD; n = 16): 1; TEAE: Headache (subjects with TRD; n = 16): 2; TEAE: Hypertension (subjects with TRD; n = 16): 1; TEAE: Hyperthyroidism (subjects with TRD; n = 16): 1; TEAE: Myalgia (subjects with TRD; n = 16): 1; TEAE: Nausea (subjects with TRD; n = 16): 1; TEAE: Nipple pain (subjects with TRD; n = 16): 1; TEAE: Orthostatic hypotension (subjects with TRD; n = 16): 1; TEAE: Sensory disturbance (subjects with TRD; n = 16): 1; TEAE: Skin abrasion (subjects with TRD; n = 16): 1; TEAE: Somnolence (subjects with TRD; n = 16): 4; TEAE: T-wave inversion (subjects with TRD; n = 16): 1; Total number of TEAEs (subjects with TRD; n = 16): 24; BPRS+ and CADSS scores (subjects with TRD; vs placebo): comparable as between the treatment groups
